Columns and labels:
Type in all cases: cell-based, Pseudomonas aeruginosa
[1] = tested on: MDR/XDR P. aeruginosa clinical isolates; assay: MIC and checkerboard, panel of clinical isolates; conditions: antibiotic + compound 2 (8.7 μM); resistant P. aeruginosa isolates
PA 100036 = assay: Checkerboard combination study / MIC
WT P. aeruginosa PAO1 = assay: Checkerboard combination study / MIC
PA 91433 = assay: Checkerboard combination study / MIC; conditions: PA 91433
PA 262 = assay: Checkerboard combination study / MIC
PA 260 = assay: Checkerboard combination study / MIC
PA 259 = assay: Checkerboard combination study / MIC
PA 114228 = assay: Checkerboard combination study / MIC
PAO200 = tested on: PAO200
From the text: (§1) PAO200 is a tnexA-rnexB-oprM deletion strain while PAO750 lacks five important RND pumps (McxAB-OprM, MexCD-OprJ, MexEF-OprN, Mex JK, and MexXY) and the outer membrane protein OpmH (46, 47). Some of these pumps are homologues of broad substrate specificities that extrude different classes of antimicrobial agents and confer resistance on P. aeruginosa (48).
(§2) Antimicrobial Susceptibility Assay. The in vitro antimicrobial activity of all compounds/antibiotics against a panel of bacteria was evaluated by microbroth dilution method in accordance with the Clinical and Laboratory Standards Institute (CLSI) guidelines. Overnight grown bacterial cultures were diluted in saline to achieve a 0.5 McFarland turbidity, followed by 1:50 dilution in Mueller-Hinton broth (MHB) for inoculation to a final concentration of approximately 5×10^5CFU/mL. The antimicrobial agents were 2-fold serially diluted in MHB in a 96-well plate and incubated at 37° C. with equal volumes of inoculum for 18 h. The lowest concentration that prevented the visible growth of bacteria was defined as the MIC for each antimicrobial agent. The broth with or without bacterial cells was used as positive or negative control, respectively.
(§3) Checkerboard Assay. Combination studies with different antibiotics were performed in 96-well plates as previously described (22). Briefly, the antibiotic of interest was serially diluted in MHB along the abscissa while the adjuvant (newly synthesized conjugates) was serially diluted in MHB along the ordinate. This creates a 10×7 matrix wherein each well consists of a combination of different antibiotic and adjuvant concentrations. Overnight grown bacterial cultures were diluted in saline to achieve a 0.5 McFarland turbidity, followed by 1:50 dilution in Mueller-Hinton broth (MHB) for inoculation to a final concentration of approximately 5×10^5CFU/mL. Equal volume of this bacterial culture was then added to each well and incubated at 37° C. for 18 h. After incubation, the plates were read on EMax® Plus microplate reader (Molecular Devices, Sunnyvale, Calif., USA) at 590 nm. MIC was recorded as wells with the lowest concentration of drugs with no bacterial growth. The fractional inhibitory concentration (FIC) for each antibiotic was calculated by dividing the MIC of the antibiotic in the presence of adjuvant by the MIC of the antibiotic alone. Similarly, the FIC of adjuvant was calculated by dividing the MIC of the adjuvant in the presence of antibiotic by the MIC of the adjuvant alone. FIC index is the sum of both FICs. FIC indices of <0.5 were deemed synergistic; 0.5-4, no interaction; and >4, antagonistic.

PAO750 = tested on: PAO750
From the text: as §1, §2, §3

PA 101243 = assay: Checkerboard combination study / MIC; conditions: PA 101243
PA 264 = assay: Checkerboard combination study / MIC
PA 101885 = assay: Checkerboard combination study / MIC
[2] = MIC of antibiotic combined with compound 2

## CO/N=C(\C(=O)N[C@@H]1C(=O)N2C(C(=O)O)=C(COC(C)=O)CS[C@H]12)c1csc(N)n1 [Cefotaxime]
[1]
  resistant isolates reaching CLSI clinical breakpoint: four out of ten
PA 100036; [2]
  MICCombination (antibiotic): 8 µg/mL
PA 100036; antibiotic + compound 2
  FICI: <0.31
PA 100036; antibiotic alone
  MICAntibiotic: 32 µg/mL
PA 100036; with compound 2
  FICAntibiotic: 0.250
WT P. aeruginosa PAO1; + compound 2 ≤8.7 μM, PAO1
  MIC of antibiotic + Compound 2 in PAO1: 4 (4) μg/ml
WT P. aeruginosa PAO1; Pseudomonas aeruginosa, PAO1, 18 h, antibiotic alone, WT PAO1 (Table 2), read-out: MIC alone
  MIC: 16 µg/mL
WT P. aeruginosa PAO1; antibiotic + compound 1, WT PAO1
  FICI in the presence of ≤10 μM of 1: 0.13
WT P. aeruginosa PAO1; antibiotic + compound 1 ≤10 μM, WT PAO1
  MIC of Antibiotics in the presence of ≤10 μM of 1: 2 µg/mL
WT P. aeruginosa PAO1; antibiotic + compound 2, WT PAO1
  FICI in the presence of ≤10 μM of 2: 0.26
WT P. aeruginosa PAO1; antibiotic + compound 2 ≤10 μM, WT PAO1
  MIC of Antibiotics in the presence of ≤10 μM of 2: 4 µg/mL
WT P. aeruginosa PAO1; antibiotic + compound 3, WT PAO1
  FICI in the presence of ≤10 μM of 3: 0.27
WT P. aeruginosa PAO1; antibiotic + compound 3 ≤10 μM, WT PAO1
  MIC of Antibiotics in the presence of ≤10 μM of 3: 4 µg/mL
WT P. aeruginosa PAO1; antibiotic alone, PAO1 wild-type (Table 4)
  MIC of antibiotic alone in PAO1: 16 µg/mL
PA 91433; [2]
  MICCombination (antibiotic): 8 µg/mL
PA 91433; antibiotic + compound 2
  FICI: <0.07
PA 91433; antibiotic alone
  MICAntibiotic: 1024 µg/mL
PA 91433; with compound 2
  FICAntibiotic: 0.008
PA 262; [2]
  MICCombination (antibiotic): 32 µg/mL
PA 262; antibiotic + compound 2
  FICI: <0.31
PA 262; antibiotic alone
  MICAntibiotic: 128 µg/mL
PA 262; with compound 2
  FICAntibiotic: 0.250
PA 260; [2]
  MICCombination (antibiotic): 512 µg/mL
PA 260; antibiotic + compound 2
  FICI: <0.53
PA 260; antibiotic alone
  MICAntibiotic: 1024 µg/mL
PA 260; with compound 2
  FICAntibiotic: 0.500
PA 259; [2]
  MICCombination (antibiotic): 512 µg/mL
PA 259; antibiotic + compound 2
  FICI: <0.31
PA 259; antibiotic alone
  MICAntibiotic: 2048 µg/mL
PA 259; with compound 2
  FICAntibiotic: 0.250
PA 114228; [2]
  MICCombination (antibiotic): 16 µg/mL
PA 114228; antibiotic + compound 2
  FICI: <0.14
PA 114228; antibiotic alone
  MICAntibiotic: 128 µg/mL
PAO200; + compound 2 ≤8.7 μM, PAO200
  MIC of antibiotic + Compound 2 in PAO200: 4 µg/mL
PAO200; antibiotic alone, PAO200 efflux-deficient
  MIC of antibiotic alone in PAO200: 8 µg/mL
PAO750; + compound 2 ≤8.7 μM, PAO750
  MIC of antibiotic + Compound 2 in PAO750: 2 µg/mL
PAO750; antibiotic alone, PAO750 efflux-deficient
  MIC of antibiotic alone in PAO750: 32 µg/mL
PA 101243; [2]
  MICCombination (antibiotic): 128 µg/mL
PA 101243; antibiotic + compound 2
  FICI: <0.50
PA 101243; antibiotic alone
  MICAntibiotic: 256 µg/mL
PA 101243; with compound 2
  FICAntibiotic: 0.500
PA 264; [2]
  MICCombination (antibiotic): 512 µg/mL
PA 264; antibiotic + compound 2
  FICI: <0.31
PA 264; antibiotic alone
  MICAntibiotic: 2048 µg/mL
PA 264; with compound 2
  FICAntibiotic: 0.250
PA 101885; [2]
  MICCombination (antibiotic): 8 µg/mL
PA 101885; antibiotic + compound 2
  FICI: <0.13
PA 101885; antibiotic alone
  MICAntibiotic: 128 µg/mL
PA 101885; with compound 2
  FICAntibiotic: 0.063

— patent US20210290648A1, “Potentiation of B-Lactam Antibiotics and B-Lactam/B-Lactamase Inhibitor Combinations Against Multidrug and Extensively Drug-Resistant Pseudomonas Aeruginosa Using Non-Ribosomal Tobramycin-Cyclam Conjugates” (University of Manitoba, priority 2018, published 2021)
